Data set [1] in a line: Plasma half-life of compound was determined in rat. It counts as ADME, cell-free.
Data set [2] addresses Dipeptidyl peptidase 2 (Homo sapiens, UniProt Q9UHL4).
The target of data set [3] is Dipeptidyl peptidase 4 (Homo sapiens, UniProt P27487).
The target in data set [4] is Dipeptidyl peptidase 9 (Homo sapiens, UniProt Q86TI2).
The target in data set [5] is Dipeptidyl peptidase 8 (Homo sapiens, UniProt Q6V1X1).
The nature of data set [6]: Oral bioavailability in rat. It counts as ADME, organism-based. The settings on record: in vivo.
Data set [7] can be described thus: Plasma cearance of compound was determined in rat. It counts as ADME, organism-based. The following applies: read-out: Clp.
Data set [8] has as its target Voltage-gated inwardly rectifying potassium channel KCNH2 (Homo sapiens, UniProt Q12809).

Sequence of Dipeptidyl peptidase 9 (Q86TI2 whole entry): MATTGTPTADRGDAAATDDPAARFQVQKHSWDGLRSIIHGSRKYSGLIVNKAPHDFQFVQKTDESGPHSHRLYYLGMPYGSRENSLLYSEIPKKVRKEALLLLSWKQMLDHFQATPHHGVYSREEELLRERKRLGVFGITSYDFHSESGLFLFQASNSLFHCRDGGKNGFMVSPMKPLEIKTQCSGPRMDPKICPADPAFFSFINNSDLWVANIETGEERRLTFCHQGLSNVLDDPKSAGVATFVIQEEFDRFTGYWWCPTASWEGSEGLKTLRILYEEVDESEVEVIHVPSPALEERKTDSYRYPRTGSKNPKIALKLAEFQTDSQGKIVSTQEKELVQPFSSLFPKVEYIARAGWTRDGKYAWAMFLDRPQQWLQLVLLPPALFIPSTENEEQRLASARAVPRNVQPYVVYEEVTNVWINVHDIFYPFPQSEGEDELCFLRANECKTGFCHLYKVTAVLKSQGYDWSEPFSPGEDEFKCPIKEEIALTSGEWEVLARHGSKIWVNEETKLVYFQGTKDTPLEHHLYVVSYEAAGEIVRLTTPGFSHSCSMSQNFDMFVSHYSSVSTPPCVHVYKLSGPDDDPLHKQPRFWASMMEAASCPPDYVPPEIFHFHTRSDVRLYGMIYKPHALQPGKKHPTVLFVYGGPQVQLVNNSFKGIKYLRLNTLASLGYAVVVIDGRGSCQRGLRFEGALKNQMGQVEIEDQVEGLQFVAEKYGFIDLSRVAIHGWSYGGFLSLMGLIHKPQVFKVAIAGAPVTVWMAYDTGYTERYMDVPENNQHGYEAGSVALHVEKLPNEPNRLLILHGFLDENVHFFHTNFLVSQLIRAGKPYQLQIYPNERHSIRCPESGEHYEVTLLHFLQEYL
Sequence of Dipeptidyl peptidase 8 (Q6V1X1 whole entry): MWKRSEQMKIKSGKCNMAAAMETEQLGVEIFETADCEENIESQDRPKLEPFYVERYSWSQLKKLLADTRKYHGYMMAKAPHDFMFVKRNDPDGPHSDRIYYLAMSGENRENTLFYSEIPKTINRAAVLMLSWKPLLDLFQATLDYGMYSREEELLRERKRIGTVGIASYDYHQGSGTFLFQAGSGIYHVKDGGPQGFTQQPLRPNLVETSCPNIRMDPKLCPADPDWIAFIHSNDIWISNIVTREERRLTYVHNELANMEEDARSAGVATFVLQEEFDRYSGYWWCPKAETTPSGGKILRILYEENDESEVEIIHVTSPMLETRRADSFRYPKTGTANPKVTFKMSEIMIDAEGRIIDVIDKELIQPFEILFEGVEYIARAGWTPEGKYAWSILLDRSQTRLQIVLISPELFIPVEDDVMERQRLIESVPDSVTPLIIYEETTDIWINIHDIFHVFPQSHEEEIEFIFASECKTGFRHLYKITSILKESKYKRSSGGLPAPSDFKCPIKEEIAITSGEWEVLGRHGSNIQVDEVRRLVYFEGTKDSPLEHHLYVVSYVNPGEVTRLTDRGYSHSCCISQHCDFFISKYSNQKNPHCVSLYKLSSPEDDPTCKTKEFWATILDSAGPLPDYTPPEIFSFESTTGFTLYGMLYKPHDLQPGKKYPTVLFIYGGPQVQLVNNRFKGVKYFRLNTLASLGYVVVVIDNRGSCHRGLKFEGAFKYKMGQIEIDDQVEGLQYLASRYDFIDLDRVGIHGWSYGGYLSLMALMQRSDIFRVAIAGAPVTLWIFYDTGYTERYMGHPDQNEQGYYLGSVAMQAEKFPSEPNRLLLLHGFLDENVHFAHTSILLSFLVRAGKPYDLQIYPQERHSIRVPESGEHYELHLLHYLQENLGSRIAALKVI
Sequence of Dipeptidyl peptidase 4 (P27487 whole entry): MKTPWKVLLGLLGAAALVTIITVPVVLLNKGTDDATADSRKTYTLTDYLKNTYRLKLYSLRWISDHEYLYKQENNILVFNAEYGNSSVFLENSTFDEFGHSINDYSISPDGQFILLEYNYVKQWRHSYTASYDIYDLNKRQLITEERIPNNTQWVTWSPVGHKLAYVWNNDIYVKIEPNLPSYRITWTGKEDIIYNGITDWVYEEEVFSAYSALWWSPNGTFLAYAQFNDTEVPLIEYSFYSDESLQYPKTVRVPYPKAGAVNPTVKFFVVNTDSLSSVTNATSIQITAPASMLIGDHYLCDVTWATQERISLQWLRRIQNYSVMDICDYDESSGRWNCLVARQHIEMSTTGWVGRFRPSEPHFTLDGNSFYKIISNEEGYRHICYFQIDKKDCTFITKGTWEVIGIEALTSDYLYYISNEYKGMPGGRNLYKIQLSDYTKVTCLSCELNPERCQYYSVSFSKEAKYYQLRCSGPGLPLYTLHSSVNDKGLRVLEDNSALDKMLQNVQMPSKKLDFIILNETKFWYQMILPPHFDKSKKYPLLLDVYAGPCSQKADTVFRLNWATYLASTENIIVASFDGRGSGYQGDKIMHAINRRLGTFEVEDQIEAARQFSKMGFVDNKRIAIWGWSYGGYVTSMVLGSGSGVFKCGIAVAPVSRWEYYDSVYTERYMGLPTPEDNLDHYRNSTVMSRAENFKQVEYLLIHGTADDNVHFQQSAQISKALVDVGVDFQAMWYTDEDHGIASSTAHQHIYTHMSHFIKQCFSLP
Sequence of Voltage-gated inwardly rectifying potassium channel KCNH2 (Q12809 whole entry): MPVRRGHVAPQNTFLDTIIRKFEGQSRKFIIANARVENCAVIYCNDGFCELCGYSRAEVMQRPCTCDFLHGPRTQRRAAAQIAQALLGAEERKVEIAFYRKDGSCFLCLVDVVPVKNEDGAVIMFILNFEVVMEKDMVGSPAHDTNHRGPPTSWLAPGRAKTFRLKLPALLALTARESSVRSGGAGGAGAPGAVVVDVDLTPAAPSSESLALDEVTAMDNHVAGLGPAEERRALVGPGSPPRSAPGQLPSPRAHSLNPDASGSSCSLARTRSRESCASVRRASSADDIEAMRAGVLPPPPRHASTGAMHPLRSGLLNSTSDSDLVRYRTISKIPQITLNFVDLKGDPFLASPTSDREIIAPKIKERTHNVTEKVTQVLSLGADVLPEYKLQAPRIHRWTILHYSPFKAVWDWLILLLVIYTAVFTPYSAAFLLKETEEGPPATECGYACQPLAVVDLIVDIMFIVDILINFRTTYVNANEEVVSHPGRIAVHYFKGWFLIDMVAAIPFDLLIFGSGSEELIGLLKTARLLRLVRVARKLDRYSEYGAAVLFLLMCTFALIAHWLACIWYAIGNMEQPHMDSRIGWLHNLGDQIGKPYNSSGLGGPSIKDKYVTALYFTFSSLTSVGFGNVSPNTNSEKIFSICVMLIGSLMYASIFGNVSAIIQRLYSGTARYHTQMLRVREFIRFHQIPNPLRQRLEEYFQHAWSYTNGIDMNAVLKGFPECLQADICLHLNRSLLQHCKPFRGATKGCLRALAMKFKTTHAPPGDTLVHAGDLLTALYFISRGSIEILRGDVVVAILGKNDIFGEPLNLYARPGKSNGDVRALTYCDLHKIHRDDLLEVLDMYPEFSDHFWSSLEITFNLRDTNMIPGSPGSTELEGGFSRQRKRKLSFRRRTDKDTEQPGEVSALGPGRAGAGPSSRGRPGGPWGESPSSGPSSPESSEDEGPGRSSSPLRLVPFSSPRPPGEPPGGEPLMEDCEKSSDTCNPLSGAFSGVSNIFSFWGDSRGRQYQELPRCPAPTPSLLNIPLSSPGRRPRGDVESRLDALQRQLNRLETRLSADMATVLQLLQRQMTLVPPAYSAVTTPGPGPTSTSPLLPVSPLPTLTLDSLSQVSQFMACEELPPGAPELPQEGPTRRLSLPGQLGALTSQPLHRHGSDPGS

Consider `C[C@@H](c1ccc(-c2ccc(F)cc2)cc1)[C@H](N)C(=O)N1CC[C@H](F)C1.O=C(O)C(F)(F)F`, for which, in data set [1], the half-life is 132 min.

For the molecule `C[C@@H](c1ccc(Cl)cc1)[C@H](N)C(=O)N1CC[C@H](F)C1`, the IC50 in data set [2] was 5.9 µM; in data set [3], 0.17 µM; in data set [4] it was greater than 100 µM; in data set [5], greater than 100 µM.

In the case of `C[C@@H](c1ccc(-c2cccc(-c3nc[nH]n3)c2)cc1)[C@H](N)C(=O)N1CC[C@H](F)C1`, the 50% inhibitory concentration (IC50) in data set [2] is 0.35 µM; in data set [3], 0.098 µM; in data set [4], greater than 100 µM; in data set [5], greater than 100 µM.

`C[C@@H](c1ccc(Br)cc1)[C@H](N)C(=O)N1CC[C@H](F)C1`: the concentration for half-maximal inhibition (IC50) was 3.6 µM in data set [2], 0.25 µM in data set [3], greater than 100 µM in data set [4] and greater than 100 µM in data set [5].

Regarding `C[C@@H](c1ccc(F)cc1C(F)(F)F)[C@H](N)C(=O)N1CC[C@H](F)C1`, the IC50 was greater than 100 µM in data set [2], 54 µM in data set [3], greater than 100 µM in data set [4] and greater than 100 µM in data set [5].

With `C[C@@H](c1ccc(-c2ccccc2Cl)cc1)[C@H](N)C(=O)N1CC[C@H](F)C1`, the IC50 is 0.38 µM in data set [2], 0.086 µM in data set [3], greater than 100 µM in data set [4] and greater than 100 µM in data set [5].

Consider `C[C@@H](c1cccc(F)c1)[C@H](N)C(=O)N1CC[C@H](F)C1`, for which the IC50 in data set [2] is 14 µM; in data set [3], 3.7 µM; in data set [4] it was greater than 100 µM; in data set [5] it was greater than 100 µM.

As for `C[C@@H](c1ccc(-c2ccccn2)cc1)[C@H](N)C(=O)N1CC[C@H](F)C1`, the IC50 in data set [2] is 4.6 µM; in data set [3], 0.24 µM; in data set [4], greater than 100 µM; in data set [5], greater than 100 µM.

For the molecule `C[C@@H](c1ccc(-c2ccc(C(=O)O)cc2)cc1)[C@H](N)C(=O)N1CC[C@H](F)C1`, the IC50 is 8.6 µM in data set [2], 0.37 µM in data set [3], greater than 100 µM in data set [4] and greater than 100 µM in data set [5].

As for `C[C@@H](c1ccc(-c2nccs2)cc1)[C@H](N)C(=O)N1CC[C@H](F)C1`, the 50% inhibitory concentration (IC50) in data set [2] was 0.72 µM; in data set [3], 1.5 µM; in data set [4], greater than 100 µM; in data set [5], greater than 100 µM.

`CCOC(=O)c1cccc(-c2ccc([C@H](C)[C@H](N)C(=O)N3CC[C@H](F)C3)cc2)c1`: the IC50 in data set [2] was 0.49 µM; in data set [3], 0.075 µM; in data set [4], greater than 100 µM; in data set [5] it was greater than 100 µM.

For the molecule `C[C@@H](c1cccc(Cl)c1)[C@H](N)C(=O)N1CC[C@H](F)C1`, the IC50 in data set [2] was 5.7 µM; in data set [3], 1.1 µM; in data set [4] it was greater than 100 µM; in data set [5], greater than 100 µM.

With `C[C@@H](c1ccc(-c2ccc(NS(C)(=O)=O)cc2)cc1)[C@H](N)C(=O)N1CC[C@H](F)C1`, the IC50 in data set [2] is 1.8 µM; in data set [3] it was 0.71 µM; in data set [4] it was greater than 100 µM; in data set [5], greater than 100 µM.

`C[C@@H](c1ccc(-c2ccc(S(C)(=O)=O)cc2)cc1)[C@H](N)C(=O)N1CC[C@H](F)C1`: the IC50 is 1.2 µM in data set [2], 0.42 µM in data set [3], greater than 100 µM in data set [4] and greater than 100 µM in data set [5].

On to `C[C@@H](c1ccc(C(F)(F)F)cc1)[C@H](N)C(=O)N1CC[C@H](F)C1`, for which the half-maximal inhibitory concentration (IC50) in data set [2] is 5.2 µM; in data set [3], 0.6 µM; in data set [4], greater than 100 µM; in data set [5], greater than 100 µM.

For the molecule `C[C@@H](c1ccc(-c2cccnc2)cc1)[C@H](N)C(=O)N1CC[C@H](F)C1`, the IC50 is 4.8 µM in data set [2], 0.11 µM in data set [3], greater than 100 µM in data set [4] and greater than 100 µM in data set [5].

For the molecule `C[C@@H](c1cc(F)cc(F)c1)[C@H](N)C(=O)N1CC[C@H](F)C1`, the IC50 in data set [2] is 7.8 µM; in data set [3], 3.7 µM; in data set [4], greater than 100 µM; in data set [5], greater than 100 µM.

For `C[C@@H](c1ccc(-c2cccc(-c3nn[nH]n3)c2)cc1)[C@H](N)C(=O)N1CC[C@H](F)C1.O=C(O)C(F)(F)F`, the IC50 was 2.9 µM in data set [2], 0.006 µM in data set [3] and greater than 100 µM in data set [5]. The molecule also showed a bioavailability in data set [6] of 3.5%. The clearance in data set [7] came out at 132 mL/min/kg. Also, the half-life in data set [1] is 18 min.

Turning to `C[C@@H](c1ccc(-c2cccc(-c3nnco3)c2)cc1)[C@H](N)C(=O)N1CC[C@H](F)C1`, the IC50 is 0.96 µM in data set [2], 0.069 µM in data set [3], greater than 100 µM in data set [4] and greater than 100 µM in data set [5].

Regarding `C[C@@H](c1ccc(-c2cccc(C(=O)O)c2)cc1)[C@H](N)C(=O)N1CC[C@H](F)C1.O=C(O)C(F)(F)F`, the IC50 in data set [2] is 9.2 µM; in data set [3] it was 0.056 µM; in data set [4], greater than 100 µM; in data set [5], greater than 100 µM. The same molecule yielded a bioavailability in data set [6] of 2.3%. Also, in data set [7], the clearance was 50.8 mL/min/kg. For the same molecule, the half-life in data set [1] is 24 min.

Consider `C[C@@H](c1ccc(F)cc1Cl)[C@H](N)C(=O)N1CC[C@H](F)C1`, for which the IC50 was 46 µM in data set [2], 4.2 µM in data set [3], greater than 100 µM in data set [4] and greater than 100 µM in data set [5].

Consider `C[C@@H](c1ccc(-c2cccc(NS(C)(=O)=O)c2)cc1)[C@H](N)C(=O)N1CC[C@H](F)C1`, for which the IC50 in data set [2] is 0.25 µM; in data set [3], 0.15 µM; in data set [4] it was greater than 100 µM; in data set [5], greater than 100 µM.

Turning to `C[C@@H](c1ccc(N2CCCCC2)cc1)[C@H](N)C(=O)N1CC[C@H](F)C1`, the IC50 in data set [2] was 28 µM; in data set [3] it was 7.9 µM; in data set [4], greater than 100 µM; in data set [5], greater than 100 µM.

As for `C[C@@H](c1ccccc1)[C@H](N)C(=O)N1CC[C@H](F)C1`, the IC50 is 59 µM in data set [2], 1.4 µM in data set [3], greater than 100 µM in data set [4] and greater than 100 µM in data set [5].

`C[C@@H](c1ccccc1F)[C@H](N)C(=O)N1CC[C@H](F)C1`: the IC50 was 19 µM in data set [2], 1.1 µM in data set [3], greater than 100 µM in data set [4] and greater than 100 µM in data set [5].

Turning to `CCOC(=O)c1ccc(-c2ccc([C@H](C)[C@H](N)C(=O)N3CC[C@H](F)C3)cc2)cc1`, the IC50 is 0.12 µM in data set [2], 0.44 µM in data set [3], greater than 100 µM in data set [4] and greater than 100 µM in data set [5].

On to `C[C@@H](c1ccc(-c2ccc(F)cc2F)cc1)[C@H](N)C(=O)N1CC[C@H](F)C1`, for which the IC50 is 2.5 µM in data set [2], 0.037 µM in data set [3], greater than 100 µM in data set [4] and greater than 100 µM in data set [5].

`COc1ccccc1-c1ccc([C@H](C)[C@H](N)C(=O)N2CC[C@H](F)C2)cc1`: the IC50 in data set [2] was 3.8 µM; in data set [3] it was 0.11 µM; in data set [4], greater than 100 µM; in data set [5] it was greater than 100 µM.

Consider `C[C@@H](c1ccc(-c2ccccc2)c(F)c1)[C@H](N)C(=O)N1CC[C@H](F)C1`, for which the IC50 is 48 µM in data set [2], 2 µM in data set [3], greater than 100 µM in data set [4] and greater than 100 µM in data set [5].

As to `C[C@@H](c1ccc(-c2cccc(S(N)(=O)=O)c2)cc1)[C@H](N)C(=O)N1CC[C@H](F)C1`, the IC50 was 3.6 µM in data set [2], 0.14 µM in data set [3], greater than 100 µM in data set [4] and greater than 100 µM in data set [5].

As to `COc1ccc([C@H](C)[C@H](N)C(=O)N2CC[C@H](F)C2)cc1`, the IC50 in data set [2] is 14 µM; in data set [3], 0.77 µM; in data set [4], greater than 100 µM; in data set [5] it was greater than 100 µM.

`C[C@@H](c1ccc(-c2cccc(-c3noc(O)n3)c2)cc1)[C@H](N)C(=O)N1CC[C@H](F)C1.O=C(O)C(F)(F)F`: the 50% inhibitory concentration (IC50) is 1.1 µM in data set [2]; 0.003 µM in data set [3]; 28 µM in data set [8]; greater than 100 µM in data set [4]; greater than 100 µM in data set [5]. The molecule further came in with a bioavailability in data set [6] of 4.2%. Also, the clearance in data set [7] came out at 23.9 mL/min/kg. The molecule also showed a half-life in data set [1] of 66 min.

As for `C[C@@H](c1ccc(S(C)(=O)=O)cc1)[C@H](N)C(=O)N1CC[C@H](F)C1`, the IC50 in data set [2] is 36 µM; in data set [3], 3.6 µM; in data set [4] it was greater than 100 µM; in data set [5], greater than 100 µM.

On to `C[C@@H](c1ccc(-c2ccccc2F)cc1)[C@H](N)C(=O)N1CC[C@H](F)C1`, for which the IC50 in data set [2] is 1.1 µM; in data set [3] it was 0.1 µM; in data set [4], greater than 100 µM; in data set [5] it was greater than 100 µM.

Regarding `C[C@@H](c1ccc(Cl)cc1F)[C@H](N)C(=O)N1CC[C@H](F)C1`, the IC50 in data set [2] was 5.6 µM; in data set [3], 0.48 µM; in data set [4], greater than 100 µM; in data set [5] it was greater than 100 µM.

Regarding `C[C@@H](c1ccc(-c2ccncc2)cc1)[C@H](N)C(=O)N1CC[C@H](F)C1`, the IC50 in data set [2] is 3.1 µM; in data set [3], 0.11 µM; in data set [4] it was greater than 100 µM; in data set [5] it was greater than 100 µM.

With `C[C@@H](c1ccc(-c2ccccc2C(F)(F)F)cc1)[C@H](N)C(=O)N1CC[C@H](F)C1`, the IC50 was 2.5 µM in data set [2], 0.13 µM in data set [3], greater than 100 µM in data set [4] and greater than 100 µM in data set [5].

A word on the half-life: it is the time in which the quantity being followed falls by half. High values mean slow decline, low ones rapid decline. Broadly, the IC50 is the concentration that gives 50% inhibition. Low readings indicate greater potency in that assay, high ones weaker potency in that assay. Usually bioavailability stands for dose-corrected exposure relative to a reference, in per cent. A high value points to good availability.

The record behind these values is ChEMBL document CHEMBL1139555, “Discovery of potent and selective phenylalanine based dipeptidyl peptidase IV inhibitors” (Bioorg Med Chem Lett, 2005).
